Measured values as given in patent US12714714B2, “Combination therapy for treating executive function disorders” (Anaka Pharmaceuticals, Inc., priority 2021, dated 2026).
Where “and” joins values, the source holds several entries; their conditions need not be identical. Equal values may be shown once.

Legend:
[1] = tested on: patients suffering from ADHD; assay: Determination of clinically effective dose, lacosamide monotherapy vs combination therapy (Example 1); format: in vivo, human; settings: for Clinically effective dose of lacosamide: in monotherapy vs in combination therapy with oxcarbazepine
Description: (§1) The effects of lacosamide monotherapy were tested in three patients (two boys; and one child) suffering from ADHD over the period of 6 months. After the period of 6 months, the treatment was discontinued for 45 days. Next, the three patients were treated with a combination of lacosamide and oxcarbazepine for a period of 3 months. The results of monotherapy and combination therapy were compared.
(§2) Patients were monitored clinically every week, during the whole duration of the study. They were also monitored on their pedagogic condition and evolution: before any treatment, mid-term and by the end of the lacosamide monotherapy and combination treatment. In addition, the patients were monitored neuropsychologicaly through the administration of different tests, pre- and post-treatment. A basal measure of their executive capabilities was established before any treatment.
(§3) Initially, a dose of 50 mg/12 hrs of lacosamide was administered to every patient. Through the study, the dose of lacosamide was increased (by 100 mg per week) to […] for every patient, following clinical response (on attention capacity, sleep, tiredness, mood stability, comprehension and general cognitive improvement).
Initially, a dose of 50 mg/12 hrs of lacosamide and a dose of 300 mg/12 hrs of oxcarbazepine was administered to every patient. Through the study, the dose of lacosamide was increased (by 100 mg per week) to 200 mg/12 hrs for every patient, following clinical response (attention capacity, sleep, tiredness, mood stability, comprehension and general cognitive improvement). […] The dose for oxcarbazepine was increased in week 7 to 450 mg/12 hrs for every patient, maintaining the previously reached respective doses for lacosamide.
Starting from this initial dose (50 mg/12 hs), the dose of lacosamide was adjusted to reflect clinically effective dose, based on clinical signs. Lacosamide was initially raised by 100 mg/24 hs in two takes. The highest dose of lacosamide was 400 mg/24 hs. In the combination therapy, oxcarbazepine was raised from 600 mg to 900 mg for all participants after 6 weeks, regardless of their lacosamide dosage.
The final dosage of lacosamide and oxcarbazepine was established based on patients' clinical results for executive dysfunction and the neurophysiological symptoms (e.g. hyperactivity, enuresis, and lethargy).

GABA transaminase = GABA transaminase (Homo sapiens, UniProt P80404); settings: cited from earlier work
Sequence of GABA transaminase (P80404 29-500, species assumed): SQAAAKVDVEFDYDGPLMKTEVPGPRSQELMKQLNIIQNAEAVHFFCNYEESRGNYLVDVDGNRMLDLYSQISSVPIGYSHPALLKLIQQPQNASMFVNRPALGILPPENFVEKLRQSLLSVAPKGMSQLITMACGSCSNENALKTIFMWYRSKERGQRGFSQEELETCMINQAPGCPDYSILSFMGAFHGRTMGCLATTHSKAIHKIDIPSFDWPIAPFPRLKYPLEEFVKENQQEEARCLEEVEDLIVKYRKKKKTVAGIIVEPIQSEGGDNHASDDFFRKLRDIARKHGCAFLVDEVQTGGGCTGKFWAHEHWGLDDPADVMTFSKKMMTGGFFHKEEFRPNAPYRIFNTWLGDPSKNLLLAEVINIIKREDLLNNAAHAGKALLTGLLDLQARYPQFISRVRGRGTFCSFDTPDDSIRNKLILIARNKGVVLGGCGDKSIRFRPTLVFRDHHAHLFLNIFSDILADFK

[2] = tested on: potassium or calcium currents; settings: cited from earlier work
[3] = tested on: patients suffering from ADHD; assay: Clinical evolution under treatment, weekly clinical and pedagogic monitoring (Example 1); format: in vivo, human
Description: as §1, §2
The treatment was delivered twice a day and went on for at least 3 months.
as §3
Initially, a dose of 50 mg/12 hrs of lacosamide and a dose of 300 mg/12 hrs of oxcarbazepine was administered to every patient. Through the study, the dose of lacosamide was increased (by 100 mg per week) to 200 mg/12 hrs for every patient, following clinical response (attention capacity, sleep, tiredness, mood stability, comprehension and general cognitive improvement). In response to clinical presentation of all three patients, the dose of lacosamide was decreased to 100 mg/12 hrs and maintained thereafter. The dose for oxcarbazepine was increased in week 7 to 450 mg/12 hrs for every patient, maintaining the previously reached respective doses for lacosamide.

[4] = tested on: voltage-gated sodium channels; settings: cited from earlier work
[5] = tested on: AMPA, kainate, NMDA, GABAA, GABAB, dopaminergic, serotonergic, adrenergic, muscarinic or cannabinoid receptors; settings: cited from earlier work
[6] = tested on: patients suffering from ADHD; assay: WCST (Example 1); format: in vivo, human
From the text: as §2
(§4) The results of neuropsychological tests for lacosamide monotherapy and lacosamide and oxcarbazepine combination therapy were evaluated.

[7] = tested on: patients suffering from ADHD; assay: Stroop test (Example 1); format: in vivo, human
From the text: as §2, §4

[8] = tested on: reuptake of norepinephrine, dopamine, and serotonin; settings: cited from earlier work
[9] = tested on: patients suffering from ADHD; assay: Conners' Continuous Performance Test CPT-2 (Example 1); format: in vivo, human
From the text: as §2
The results of neuropsychological tests for lacosamide monotherapy and lacosamide and oxcarbazepine combination therapy were evaluated. […] The other patient had similar results for monotherapy and combination treatment.

[10] = tested on: patients suffering from ADHD; assay: TONI-2 nonverbal reasoning test (Example 1); format: in vivo, human
From the text: as §2, §4

[11] = tested on: children who take methylphenidate; settings: cited from earlier work
Severe ADHD = assay: Case study A: (Example 3); format: in vivo, human
From the text: (§5) The combination of lacosamide and oxcarbazepine has been administered to three additional patients with various symptoms associated with executive function disorder. The combination of lacosamide and oxcarbazepine was successful in alleviating different symptoms of executive function disorder.

Severe autism (Level 3) = assay: Case Study C: (Example 3); format: in vivo, human
From the text: as §5

[12] = patient 001, October 2020 = lacosamide monotherapy, December 2020 = combination therapy
[13] = patient 002, October 2020 = lacosamide monotherapy, December 2020 = combination therapy
[14] = patient 003, October 2020 = after 6 months lacosamide alone, December 2020 = after 3 months combined therapy
[15] = patient 003, table: December 2020, combined therapy, text b168: monotherapy vs combined therapy

## COC[C@@H](NC(C)=O)C(=O)NCc1ccccc1 [lacosamide, (2R)-2-(acetylamino)-N-benzyl-3-methoxypropanamide]
[1]; 2 patients
  clinically effective dose of lacosamide in monotherapy: 600 mg per day
[1]; Patient 1
  Clinically effective dose of lacosamide: 600 mg/day
[1]; Patient 2
  Clinically effective dose of lacosamide: 600 mg/day
[1]; Patient 3
  Clinically effective dose of lacosamide: 350 mg/day
[1]; one patient
  clinically effective dose of lacosamide in monotherapy: 350 mg
GABA transaminase
  inhibition of GABA transaminase: does not inhibit
[2]
  block of potassium or calcium currents: does not block
[3]; ADHD patients
  mood instability (aggressive behaviour towards others, deliberately contained anger, sadness): only partially regressed
[3]; Case 001
  cognitive disabilities: improved many cognitive disabilities
  dysphasia, and extreme impulsiveness: remained unchanged
[3]; Case 002
  pedagogic evolution (Comprehensive Reading): never obtained
[3]; Cases 002 and 003
  ability to speak: unaffected
  cognitive disability: improved under lacosamide alone, but the degree of the disability never really disappeared
[3]; the one of 3 ADHD patients with hyperkinesia
  hyperactivity regulation (severe hyperkinesia): did not improve
[3]; the two patients that suffered from this symptom
  enuresis episodes: partially stopped
[3]; two patients with absence of energy and tense tiredness
  lethargic situations: disappeared
[4]
  fast inactivation of voltage-gated sodium channels: without affecting
  slow inactivation of voltage-gated sodium channels: enhances
[5]
  effect on AMPA, kainate, NMDA, GABAA, GABAB or dopaminergic, serotonergic, adrenergic, muscarinic or cannabinoid receptors: does not affect
[6]; [12]
  WCST Cognitive flexibility, Level: 1
  WCST Cognitive flexibility, persistent errors: 24 persistent
  WCST Reasoning (Abstraction Categorization), Level: 2
  WCST Reasoning (Abstraction Categorization), categories completed: 3 categories
[6]; [13]
  WCST Cognitive flexibility, Level: 0
  WCST Cognitive flexibility, persistent errors: 5 persistent
  WCST Reasoning (Abstraction Categorization), Level: 0
  WCST Reasoning (Abstraction Categorization), categories completed: 8 categories
[6]; [14]
  WCST Cognitive flexibility, Level: 2
  WCST Cognitive flexibility, persistent errors: 23 persistent
  WCST Reasoning (Abstraction Categorization), Level: 2
  WCST Reasoning (Abstraction Categorization), categories completed: 4 categories
[6]; [15]
  WCST Cognitive flexibility, interpretation: Slight
  WCST Reasoning (Abstraction Categorization), interpretation: Slight Impairment
[7]; [12]
  Stroop-c Level: 1
  Stroop-c Nominative capacity, Severity Range: 43/100
  Stroop-c/p Level: 1
  Stroop-c/p Resistance to Perseveration, Severity Range: 18/100
  Stroop-p Level: 2
  Stroop-p Nominative capacity, Severity Range: 51 and 51/100
[7]; patient 001, table: December 2020, combination therapy, text b160: before vs after
  Stroop-p Actual Interpretation: Slight Impairment
[7]; [13]
  Stroop-c Level: 3
  Stroop-c Nominative capacity, Severity Range: 40/100
  Stroop-c/p Level: 2
  Stroop-c/p Resistance to Perseveration, Severity Range: 30/100
  Stroop-p Level: 4
  Stroop-p Nominative capacity, Severity Range: 32/100
[7]; [14]
  Stroop-c Level: 2
  Stroop-c Nominative capacity, Severity Range: 51/100
  Stroop-c/p Level: 3
  Stroop-c/p Resistance to Perseveration, Severity Range: 21/100
  Stroop-p Level: 3
  Stroop-p Nominative capacity, Severity Range: 51/100
[8]
  modulation of the reuptake of neurotransmitters including norepinephrine, dopamine, and serotonin: does not modulate
[9]; [12]
  CPT-2-c Level: 1
  CPT-2-c impulsivity indicators (Severity Range): No
  CPT-2-o Level: Clinical
  CPT-2-o Severity Range, score: 76.92%
  CPT-2-o inattention indicators: 6
  CPT-2-o indicators within limitations in surveillance: 2 indicators
[9]; patient 001, table: December 2020, combination therapy, text b159: first vs second evaluation
  CPT-2-o Actual Interpretation: Severe Impairment
[9]; [13]
  CPT-2-c Level: 2
  CPT-2-c impulsivity indicators (Severity Range): 1 impulsivity
  CPT-2-o Level: Non
  CPT-2-o Severity Range, score: 37.01%
  CPT-2-o inattention indicators: 2 inattention
[9]; [14]
  CPT-2-c Level: 2
  CPT-2-c impulsivity indicators (Severity Range): 1 impulsivity
  CPT-2-o Level: Clinical
  CPT-2-o Severity Range, score: 50%
  CPT-2-o inattention indicators: (6 inattention
[10]; Case 003, after 6 months Lacosamide monotherapy vs after combined therapy
  non-verbal reasoning capacity: 95 points
[10]; [12]
  TONI-2 Nonverbal Reasoning Ability, Level (CI): CI-111
  TONI-2 Nonverbal Reasoning Ability, Severity Range: 17/55
[10]; [13]
  TONI-2 Nonverbal Reasoning Ability, Level (CI): CI-104
  TONI-2 Nonverbal Reasoning Ability, Severity Range: 28/55
[10]; [14]
  TONI-2 Nonverbal Reasoning Ability, Level (CI): CI-95
  TONI-2 Nonverbal Reasoning Ability, Severity Range: 19/55

## COC(=O)C(c1ccccc1)C1CCCCN1 (stereo not drawn) [Methylphenidate]
[11]
  share of children who develop symptoms of obsessive-compulsive behaviour: one third
Severe ADHD
  lasting improvement in treating subject's symptoms, drugs received prior to therapy used in this study: None showed lasting improvement in treating

## NC(=O)N1c2ccccc2CC(=O)c2ccccc21 [oxcarbazepine, 5-oxo-6H-benzo[b][1]benzazepine-11-carboxamide]
Severe autism (Level 3)
  aggressive behavior and lack of interactivity with other members of the household: attention. They maintained aggressive
  delivery of the desired therapeutic result: Oxcarbazepine alone was not sufficient to
  hyperkinesia and impulsiveness: Minor improvement to subject's hyper-
  sleeping pattern: instability remained in sleeping pattern
  way they behaved during awake moments, quality of their day's attention: not approve in the way they behaved during

## Nc1nnc(-c2cccc(Cl)c2Cl)c(N)n1 [Lamotrigine]
Severe ADHD
  Neurophysiological and Neuropsychological symptoms: combined therapy. This was not accomplished
  lasting improvement in treating subject's symptoms, drugs received prior to therapy used in this study: None showed lasting improvement in treating

## CCCC(CCC)C(=O)O [Valproic Acid]
Severe ADHD
  lasting improvement in treating subject's symptoms, drugs received prior to therapy used in this study: None showed lasting improvement in treating
